# Data published in patent US20050136121A1, “Oral peptide delivery system with improved bioavailability” (SHEAR/KERSHMAN LABORATORIES, INC., priority 2003, published 2005).
# Assay: Study 2: female adult dogs fed formulations or injected with Humulin, serum glucose level
# Assay type: in vivo
# Experimental: Female adult dogs were fed the formulations from Examples 3 to 5. Further dogs were injected with Humulin and given 0.05 mL of 100 U/mL. Before being fed or injected the formulations, the animals fasted overnight. The dogs were fed 4 to 6 hours after dosing.
substance,measurement,setting,value
"Humulin: injected insulin comparator, 0.05 mL of 100 U/mL",time after dosing at which glucose level began increasing,injected 0.05 mL of 100 U/mL,about 2 hours
same,drop in glucose levels,"injected 0.05 mL of 100 U/mL, within minutes",67%
same,time at which glucose levels returned to normal levels,"injected, after eating",about 12 hours
same,glucose levels at hours 6 to 10,"injected, ate dog food at 4 to 6 hours",above the normal levels
